Laboratory results published in the supplement of paper PMC11208160.

Legend:
[1] = recombinant barcode read abundance after kanamycin selection (control-corrected) (log10(CPM+1)); higher = more efficient recombination; sequences stand for … in AGTGCAGAGAAAATCGGCCAGTTTTCTCTGCCTGCAGTCCGCATGCCGT…AGATTTATGCAGCGGACTGCCTTTCTCCCAAAGTGATAAACCGGACAGTATCATGGACCGGTTTTCCCGGTAATCCGTATTTGCAAGGTTGGTTTCACT; site = the 11-nt target
Procedure: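 Pooled E. coli target-specificity screen for the IS621 bridge recombinase. Each library plasmid pairs an 11-nt target (CT core) with a bridge RNA whose target-binding loop (9-nt LTG + 4-nt RTG) is reprogrammed; the rest of the 177-nt WT IS621 bridge RNA scaffold is fixed. The plasmid is co-electroporated with a WT donor plasmid; recombinase is induced with 0.1 mM IPTG and recombinants are selected on kanamycin. Recombinant barcodes are sequenced, converted to CPM, averaged over two biological replicates and corrected by the unselected control CPM. Molecule = full bridge RNA written as DNA: LTG = specificity nt 1-9, RTG = reverse complement of specificity nt 8-11, in the WT scaffold.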

[2] = recombinant UMI read abundance after kanamycin selection (control-corrected) (log10(CPM+1)); higher = more efficient recombination; extreme values may be limits of the assay; sequences stand for … in AGTGCAGAGAAAATCGGCCAGTTTTCTCTGCCTGCAGTCCGCATGCCGTGGGACCCCTTGGGTTCTAACCTGTTGCCTAGATTTATGCAGCGGACTGCCTTTCTCCCAAAGTGATAAACCGG…AGGTTGGTTTCACT; site = the 11-nt donor
Summary of the method: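 Reported values are log10(CPM+1) from a pooled Escherichia coli screen of donor and donor-binding-loop pairs for the IS621 bridge recombinase. Selection used IPTG (0.07 mM) plus kanamycin, against unselected plating, each in two replicates. Recombinant UMIs were amplified across the donor–target junction, sequenced, converted to CPM, averaged over replicates and scaled by control-derived factors.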
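Wherever recombinant UMI read abundance after kanamycin selection (control-corrected) is given: IS621 bridge recombinase in Escherichia coli cells against a fixed T5 target plasmid.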
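Wherever recombinant barcode read abundance after kanamycin selection (control-corrected) is given: IS621 recombinase and bridge RNA in Escherichia coli cells.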

Sequence | recombinant barcode read abundance (log10) [1] | recombinant UMI read abundance (log10) [2]
AAAATACCTTGGGTTCTAACCTGTTGCGG (site AAAATACCTCC) | 1.68 | –
AAAATACCTTGGGTTCTAACCTGTTGCGG (site CAAAGACCTCC) | 0.12 | –
AAAATATCTTGGGTTCTAACCTGTTGCCT (site AAAATATCTAG) | 0.438 | –
AAAATATCTTGGGTTCTAACCTGTTGCCT (site TCGTACCCTTT) | 0.0268 | –
TTGCATGCATGGACCGGTTTTCCCGGTAATCCGTATTTGGT (site ATGCATGCTAC) | – | 0.00895
TTGCATGCATGGACCGGTTTTCCCGGTAATCCGTATTTGGT (site CTGCATGCTAC) | – | 0.00328
TTGCATGCATGGACCGGTTTTCCCGGTAATCCGTATTTGGT (site GTGCATGCTAC) | – | 0.0185
TTGCATGCATGGACCGGTTTTCCCGGTAATCCGTATTTGGT (site TTGCATGCTAC) | – | 0.317
TTGCGGGCATGGACCGGTTTTCCCGGTAATCCGTATTTGTC (site TTGCGGGCTGA) | – | 2.15
TTGCTACCATGGACCGGTTTTCCCGGTAATCCGTATTTGAA (site TTGCTACCTTT) | – | 0.0119
TTGCTCACATGGACCGGTTTTCCCGGTAATCCGTATTTGTC (site TTGCTCACTGA) | – | 2.25
TTGCTGACATGGACCGGTTTTCCCGGTAATCCGTATTTGCG (site TTGCTGACTCG) | – | 1.33
TTGCTGACATGGACCGGTTTTCCCGGTAATCCGTATTTGTG (site TTGCTGACTCA) | – | 0.12
TTGGAAACATGGACCGGTTTTCCCGGTAATCCGTATTTGCA (site ATGGAAACTTG) | – | 0
TTGGAAACATGGACCGGTTTTCCCGGTAATCCGTATTTGCA (site CTGGAAACTTG) | – | 1.21
TTGGAAACATGGACCGGTTTTCCCGGTAATCCGTATTTGCA (site GTGGAAACTTG) | – | 0.342
TTGGAAACATGGACCGGTTTTCCCGGTAATCCGTATTTGCA (site TTGGAAACTTG) | – | 1.86
TTGGAGCCATGGACCGGTTTTCCCGGTAATCCGTATTTGAC (site TTGGAGCCTGT) | – | 1.31
TTGGCCACATGGACCGGTTTTCCCGGTAATCCGTATTTGGA (site TTGGCCACTTC) | – | 0.146
TTGGCGTCATGGACCGGTTTTCCCGGTAATCCGTATTTGTC (site TTGGCGTCTGA) | – | 1.13
TTGGTATCATGGACCGGTTTTCCCGGTAATCCGTATTTGAC (site TTGGTATCTGT) | – | 2.59
TTGTACCCATGGACCGGTTTTCCCGGTAATCCGTATTTGGT (site TTGTACCCTAC) | – | 0.111
TTGTATACATGGACCGGTTTTCCCGGTAATCCGTATTTGGG (site TTGTATACTCC) | – | 0.00305

Sequence | recombinant barcode read abundance (log10) [1] | recombinant UMI read abundance (log10) [2]
TTGTGATCATGGACCGGTTTTCCCGGTAATCCGTATTTGTG (site TTGTGATCTCA) | – | 1.25
TTGTGGACATGGACCGGTTTTCCCGGTAATCCGTATTTGTA (site TTGTGGACTTA) | – | 1.6
TTTAAAGCATGGACCGGTTTTCCCGGTAATCCGTATTTGAC (site TTTAAAGCTGT) | – | 0
TTTAACCCATGGACCGGTTTTCCCGGTAATCCGTATTTGAA (site TTTAACCCTTT) | – | 0.00893
TTTAACTCATGGACCGGTTTTCCCGGTAATCCGTATTTGAA (site TTTAACTCTTT) | – | 0.34
TTTAATACATGGACCGGTTTTCCCGGTAATCCGTATTTGAA (site TTTAATACTTT) | – | 0.00702
TTTACGTCATGGACCGGTTTTCCCGGTAATCCGTATTTGAT (site TTTACGTCTAT) | – | 0.00816
TTTAGACCATGGACCGGTTTTCCCGGTAATCCGTATTTGTC (site TTTAGACCTGA) | – | 0
TTTATCCCATGGACCGGTTTTCCCGGTAATCCGTATTTGAT (site TTTATCCCTAT) | – | 0.263
TTTCAGGCATGGACCGGTTTTCCCGGTAATCCGTATTTGAG (site TTTCAGGCTCT) | – | 0.155
TTTCTAGCATGGACCGGTTTTCCCGGTAATCCGTATTTGGT (site TTTCTAGCTAC) | – | 0.0163
TTTCTCACATGGACCGGTTTTCCCGGTAATCCGTATTTGCC (site TTTCTCACTGG) | – | 0.843
TTTCTGTCATGGACCGGTTTTCCCGGTAATCCGTATTTGTA (site TTTCTGTCTTA) | – | 0
TTTGAAGCATGGACCGGTTTTCCCGGTAATCCGTATTTGCG (site TTTGAAGCTCG) | – | 1.11
TTTGCAGCATGGACCGGTTTTCCCGGTAATCCGTATTTGCT (site TTTGCAGCTAG) | – | 0.00605
TTTGCAGCATGGACCGGTTTTCCCGGTAATCCGTATTTGCT (site TTTGCCGCTAG) | – | 0.0123
TTTGCAGCATGGACCGGTTTTCCCGGTAATCCGTATTTGCT (site TTTGCGGCTAG) | – | 0.00881
TTTGCAGCATGGACCGGTTTTCCCGGTAATCCGTATTTGCT (site TTTGCTGCTAG) | – | 0.00602
TTTGCGCCATGGACCGGTTTTCCCGGTAATCCGTATTTGCT (site TTTGCGACTAG) | – | 0.0112
TTTGCGCCATGGACCGGTTTTCCCGGTAATCCGTATTTGCT (site TTTGCGCCTAG) | – | 0.00475
TTTGCGCCATGGACCGGTTTTCCCGGTAATCCGTATTTGCT (site TTTGCGGCTAG) | – | 0
TTTGCGCCATGGACCGGTTTTCCCGGTAATCCGTATTTGCT (site TTTGCGTCTAG) | – | 0.0103
TTTGCGGCATGGACCGGTTTTCCCGGTAATCCGTATTTGCA (site TTTGCGGCTAG) | – | 0.0111

Sequence | recombinant barcode read abundance (log10) [1] | recombinant UMI read abundance (log10) [2]
TTTGCGGCATGGACCGGTTTTCCCGGTAATCCGTATTTGCA (site TTTGCGGCTCG) | – | 0
TTTGCGGCATGGACCGGTTTTCCCGGTAATCCGTATTTGCA (site TTTGCGGCTGG) | – | 0
TTTGCGGCATGGACCGGTTTTCCCGGTAATCCGTATTTGCA (site TTTGCGGCTTG) | – | 0.222
TTTGCGTCATGGACCGGTTTTCCCGGTAATCCGTATTTGCT (site TTTGCGACTAG) | – | 0
TTTGCGTCATGGACCGGTTTTCCCGGTAATCCGTATTTGCT (site TTTGCGCCTAG) | – | 0.0115
TTTGCGTCATGGACCGGTTTTCCCGGTAATCCGTATTTGCT (site TTTGCGGCTAG) | – | 0.018
TTTGCGTCATGGACCGGTTTTCCCGGTAATCCGTATTTGCT (site TTTGCGTCTAG) | – | 0.251
TTTGCTGCATGGACCGGTTTTCCCGGTAATCCGTATTTGTG (site TTAGCTGCTCA) | – | 0.0128
TTTGCTGCATGGACCGGTTTTCCCGGTAATCCGTATTTGTG (site TTCGCTGCTCA) | – | 0.00352
TTTGCTGCATGGACCGGTTTTCCCGGTAATCCGTATTTGTG (site TTGGCTGCTCA) | – | 0.0177
TTTGCTGCATGGACCGGTTTTCCCGGTAATCCGTATTTGTG (site TTTGCTGCTCA) | – | 0.0238
TTTGGCCCATGGACCGGTTTTCCCGGTAATCCGTATTTGCC (site TTTGGCCCTGG) | – | 0
TTTGTGACATGGACCGGTTTTCCCGGTAATCCGTATTTGAG (site TTTGTGACTCT) | – | 0.0187
TTTGTGGCATGGACCGGTTTTCCCGGTAATCCGTATTTGCT (site TTTGAGGCTAG) | – | 0
TTTGTGGCATGGACCGGTTTTCCCGGTAATCCGTATTTGCT (site TTTGCGGCTAG) | – | 0.00488
TTTGTGGCATGGACCGGTTTTCCCGGTAATCCGTATTTGCT (site TTTGGGGCTAG) | – | 0.022
TTTGTGGCATGGACCGGTTTTCCCGGTAATCCGTATTTGCT (site TTTGTGGCTAG) | – | 0.113
TTTGTTCCATGGACCGGTTTTCCCGGTAATCCGTATTTGGT (site ATTGTTCCTAC) | – | 0.0334
TTTGTTCCATGGACCGGTTTTCCCGGTAATCCGTATTTGGT (site CTTGTTCCTAC) | – | 0.00622
TTTGTTCCATGGACCGGTTTTCCCGGTAATCCGTATTTGGT (site GTTGTTCCTAC) | – | 0.0225
TTTGTTCCATGGACCGGTTTTCCCGGTAATCCGTATTTGGT (site TTTGTTCCTAC) | – | 0.0215
